Where two headings read alike, the source gives them in different places.
Legend:
FAK = FAK (Homo sapiens, UniProt Q05397); settings: 1 h, relative to vehicle control, n = 8 measurements
Caco-2 cells [1] = settings: for wound closure with proliferation inhibited: 100 nM, 4 mM hydroxyurea, 24 h, Caco-2 monolayers, n=33–35, p<0.05 vs vehicle; for EC50: read-out: EC50 (nM), ± SEM, wound healing, Caco-2 assay
hERG = hERG (Homo sapiens, UniProt Q12809); settings: at 30 μM
[2] = for Clint: intrinsic clearance; for MLM t1/2: mouse liver microsomes
[3] = PBS at pH = 7.4
Caco-2 cells [4] = settings: cited from earlier work
Src = settings: at 10 μM; cited from earlier work
Pyk2 = settings: at 10 μM; cited from earlier work
gut mucosal wound = settings: cited from earlier work
[5] = rat plasma
[6] = at concentrations 10,000x higher than the effective dose; cited from earlier work
[7] = after four days of continuous administration; cited from earlier work
[8] = cited from earlier work
[9] = cited from earlier work; remark: listed apart in the source

hERG, sequence (Q12809 whole entry): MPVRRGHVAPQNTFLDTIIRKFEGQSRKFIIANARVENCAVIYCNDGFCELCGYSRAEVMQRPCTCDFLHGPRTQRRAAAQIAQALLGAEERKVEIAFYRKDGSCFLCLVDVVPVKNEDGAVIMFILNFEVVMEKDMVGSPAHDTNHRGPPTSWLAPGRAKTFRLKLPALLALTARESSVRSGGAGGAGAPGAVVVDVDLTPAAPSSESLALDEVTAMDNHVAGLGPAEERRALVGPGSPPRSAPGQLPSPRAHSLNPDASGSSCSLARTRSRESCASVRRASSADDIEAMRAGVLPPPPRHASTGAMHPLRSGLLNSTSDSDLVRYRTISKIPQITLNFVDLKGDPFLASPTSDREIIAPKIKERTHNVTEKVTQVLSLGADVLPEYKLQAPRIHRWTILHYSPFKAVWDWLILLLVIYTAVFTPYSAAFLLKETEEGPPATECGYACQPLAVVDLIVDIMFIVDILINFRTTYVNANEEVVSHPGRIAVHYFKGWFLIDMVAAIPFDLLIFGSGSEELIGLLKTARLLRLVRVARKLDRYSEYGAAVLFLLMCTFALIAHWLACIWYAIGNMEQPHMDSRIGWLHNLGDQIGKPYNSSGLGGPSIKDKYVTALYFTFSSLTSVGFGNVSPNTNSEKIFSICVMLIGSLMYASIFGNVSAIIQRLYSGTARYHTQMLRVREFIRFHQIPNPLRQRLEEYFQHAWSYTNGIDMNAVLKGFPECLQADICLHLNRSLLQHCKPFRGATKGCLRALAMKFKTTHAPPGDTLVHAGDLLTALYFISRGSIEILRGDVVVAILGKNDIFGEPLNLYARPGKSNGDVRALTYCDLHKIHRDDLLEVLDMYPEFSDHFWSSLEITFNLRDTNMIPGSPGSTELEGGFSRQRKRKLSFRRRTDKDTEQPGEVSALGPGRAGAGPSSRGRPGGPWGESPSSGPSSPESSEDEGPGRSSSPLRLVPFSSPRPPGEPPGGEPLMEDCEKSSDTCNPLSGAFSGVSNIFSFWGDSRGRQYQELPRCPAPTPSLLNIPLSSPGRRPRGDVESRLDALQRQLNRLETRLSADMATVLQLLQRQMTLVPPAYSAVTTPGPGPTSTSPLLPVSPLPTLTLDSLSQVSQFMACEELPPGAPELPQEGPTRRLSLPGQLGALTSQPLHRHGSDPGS
FAK, sequence (Q05397 whole entry): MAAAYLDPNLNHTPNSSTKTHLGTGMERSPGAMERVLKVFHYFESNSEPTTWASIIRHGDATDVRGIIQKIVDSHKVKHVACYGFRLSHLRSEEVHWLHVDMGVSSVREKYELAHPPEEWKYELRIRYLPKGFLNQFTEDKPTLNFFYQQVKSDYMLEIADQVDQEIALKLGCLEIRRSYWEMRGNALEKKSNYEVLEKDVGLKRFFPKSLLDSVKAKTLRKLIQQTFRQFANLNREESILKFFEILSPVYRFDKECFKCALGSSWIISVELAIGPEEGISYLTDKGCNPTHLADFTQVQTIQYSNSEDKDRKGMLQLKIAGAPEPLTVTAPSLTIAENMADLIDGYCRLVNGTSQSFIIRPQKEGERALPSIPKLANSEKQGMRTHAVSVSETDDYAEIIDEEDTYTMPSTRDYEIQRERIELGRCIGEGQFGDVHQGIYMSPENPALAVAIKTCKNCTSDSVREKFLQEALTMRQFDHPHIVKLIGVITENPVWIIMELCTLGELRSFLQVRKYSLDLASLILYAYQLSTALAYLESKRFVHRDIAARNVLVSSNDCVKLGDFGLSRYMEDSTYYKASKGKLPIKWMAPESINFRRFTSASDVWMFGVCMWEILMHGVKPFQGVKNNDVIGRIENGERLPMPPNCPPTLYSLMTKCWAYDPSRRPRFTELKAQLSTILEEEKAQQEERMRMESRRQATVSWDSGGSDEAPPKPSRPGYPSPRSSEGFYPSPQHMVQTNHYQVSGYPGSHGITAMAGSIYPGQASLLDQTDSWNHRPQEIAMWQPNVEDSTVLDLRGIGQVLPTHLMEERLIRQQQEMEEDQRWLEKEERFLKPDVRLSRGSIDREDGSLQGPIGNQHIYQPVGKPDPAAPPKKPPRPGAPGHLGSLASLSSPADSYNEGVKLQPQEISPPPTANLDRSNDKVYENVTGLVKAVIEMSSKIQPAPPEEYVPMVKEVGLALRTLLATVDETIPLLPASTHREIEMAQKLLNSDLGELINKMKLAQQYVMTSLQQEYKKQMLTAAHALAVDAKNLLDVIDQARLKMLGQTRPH

| SMILES | FAK-Tyr-397/FAK fold change, ± SEM (FAK; 10 nM) | FAK-Tyr-397/FAK fold change, ± SEM (FAK; 100 nM) | wound closure with proliferation inhibited (Caco-2 cells [1]) | EC50 (Caco-2 cells [1]) | hERG Inhibition % (hERG) | Clint [2] | MLM t1/2 [2] | Solubility [3] | epithelial sheet migration in vitro (Caco-2 cells [4]) | Src activation (Src) | Pyk2 activation (Pyk2) | gut mucosal wound healing in vivo (gut mucosal wound) | area under the curve ([5]; 10 mg/kg oral gavage) | time of Cmax ([5]; 10 mg/kg oral gavage) | maximum concentration (Cmax) ([5]; 10 mg/kg oral gavage in saline, n = 4) | in vitro cytotoxicity [6] | in vivo toxicity [7] | water solubility [8] | oral bioavailability [9] |
| --- | --- | --- | --- | --- | --- | --- | --- | --- | --- | --- | --- | --- | --- | --- | --- | --- | --- | --- | --- |
| CN(C)C(CNC(=O)Nc1cc(F)ccc1N1CCOCC1)c1ccncc1.Cl (stereo not shown) [Compound 10bHCl, 1-(2-(Dimethylamino)-2-(pyridin-4-yl)ethyl)-3-(5-fluoro-2-morpholinophenyl)urea hydrochloric salt] | 1.25 fold change | 1.39 fold change | accelerated | 2.36 ± 0.58 nM | 15.2% | > 307 uL/min/mg protein | <4.51 min | 985 µg/mL |  |  |  |  |  |  |  |  |  |  |  |
| COCCOCCOc1ccc(N2CCOCC2)c(NC(=O)NCC(c2ccncc2)N(C)C)c1.Cl (stereo not shown) [Compound 10kHCl, 1-(2-(Dimethylamino)-2-(pyridin-4-yl)ethyl)-3-(5-(2-(2-methoxyethoxy)ethoxy)-2-morpholinophenyl)urea hydrochloric salt] |  |  | accelerated | 3.01 ± 0.51 nM | 0.608% | 93.0 uL/min/mg protein | 14.9 min | 1018 µg/mL |  |  |  |  |  |  |  |  |  |  |  |
| CN(C)C(CNC(=O)Nc1cc(C(F)(F)F)ccc1N1CCOCC1)c1ccncc1 (stereo not shown) [Compound 5a, 1-(2-(dimethylamino)-2-(pyridin-4-yl)ethyl)-3-(2-morpholino-5-(trifluoromethyl)phenyl)urea] |  |  |  |  |  |  |  |  | induces epithelial sheet migration | does not activate | does not activate | stimulates gut mucosal wound healing |  |  |  |  |  |  |  |
| CN(C)C(CNC(=O)Nc1cc(C(F)(F)F)ccc1N1CCOCC1)c1ccncc1.Cl (stereo not shown) [Compound 5aHCl, 1-(2-(dimethylamino)-2-(pyridin-4-yl)ethyl)-3-(2-morpholino-5-(trifluoromethyl)phenyl)urea hydrochloric salt] |  |  | accelerated | 3.01 ± 0.52 nM | 4.87% | > 307 uL/min/mg protein | < 4.51 min | 1074 µg/mL |  |  |  |  | 3149 µg·h/mL | 1 h | 967 ng/mL | no in vitro cytotoxicity | no in vivo toxicity | water-soluble | orally bioavailable |

Reference: PMC12866986 (European journal of medicinal chemistry, 2026)
